# Patent EP3771713A1 (priority 2019, dated 2021)
# Where two headings read alike, the source gives them in different places.
# Columns and labels:
# hCB1R = target: T1, hCB1R (Homo sapiens, UniProt P21554); format: binding
# T1 construct: expressed in transfected cells; host or cells: CHO cells stably expressing hCB1R
# hBChE = hBChE (Homo sapiens, UniProt P06276); experiment: biochemical; format: biochemical
# eeAChE = eeAChE (Electrophorus electricus, UniProt O42275); experiment: biochemical
# hCB2R = target: T2, hCB2R (Homo sapiens, UniProt P34972); experiment: biochemical; format: binding
# T2 construct: expressed in transfected cells; host or cells: HEK cells stably expressing hCB2R
# T2 sequence (P34972 whole entry): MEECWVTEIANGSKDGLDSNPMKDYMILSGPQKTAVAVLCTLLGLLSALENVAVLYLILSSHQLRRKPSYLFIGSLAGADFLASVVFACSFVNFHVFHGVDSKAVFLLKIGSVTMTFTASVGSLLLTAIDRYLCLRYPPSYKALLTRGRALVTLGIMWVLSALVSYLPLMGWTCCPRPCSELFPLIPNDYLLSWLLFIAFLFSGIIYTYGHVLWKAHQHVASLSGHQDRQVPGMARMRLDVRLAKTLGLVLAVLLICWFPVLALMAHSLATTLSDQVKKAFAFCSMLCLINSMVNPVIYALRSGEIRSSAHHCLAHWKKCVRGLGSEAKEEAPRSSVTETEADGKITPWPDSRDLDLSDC
# hAChE = hAChE (Homo sapiens, UniProt P22303); experiment: biochemical; format: biochemical
# Sequence of hAChE (P22303 32-614): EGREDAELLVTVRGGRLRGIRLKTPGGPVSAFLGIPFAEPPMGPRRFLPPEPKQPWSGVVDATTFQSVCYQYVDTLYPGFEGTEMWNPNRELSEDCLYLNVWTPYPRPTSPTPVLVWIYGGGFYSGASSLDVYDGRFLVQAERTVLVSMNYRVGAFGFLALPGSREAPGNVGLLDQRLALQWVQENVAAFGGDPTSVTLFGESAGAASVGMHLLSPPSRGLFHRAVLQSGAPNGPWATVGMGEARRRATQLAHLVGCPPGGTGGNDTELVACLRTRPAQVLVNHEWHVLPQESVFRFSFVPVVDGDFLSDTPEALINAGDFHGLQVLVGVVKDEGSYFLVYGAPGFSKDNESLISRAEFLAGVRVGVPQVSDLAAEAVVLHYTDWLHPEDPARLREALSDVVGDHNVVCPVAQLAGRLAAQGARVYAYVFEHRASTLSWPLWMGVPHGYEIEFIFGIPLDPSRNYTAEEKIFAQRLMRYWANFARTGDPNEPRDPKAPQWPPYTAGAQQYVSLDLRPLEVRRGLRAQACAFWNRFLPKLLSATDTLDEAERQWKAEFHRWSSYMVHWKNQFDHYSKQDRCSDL
# [1] = eeAChE from electric eel, read-out: IC50 AChE (eeAChE)
# T1 sequence (P21554 whole entry): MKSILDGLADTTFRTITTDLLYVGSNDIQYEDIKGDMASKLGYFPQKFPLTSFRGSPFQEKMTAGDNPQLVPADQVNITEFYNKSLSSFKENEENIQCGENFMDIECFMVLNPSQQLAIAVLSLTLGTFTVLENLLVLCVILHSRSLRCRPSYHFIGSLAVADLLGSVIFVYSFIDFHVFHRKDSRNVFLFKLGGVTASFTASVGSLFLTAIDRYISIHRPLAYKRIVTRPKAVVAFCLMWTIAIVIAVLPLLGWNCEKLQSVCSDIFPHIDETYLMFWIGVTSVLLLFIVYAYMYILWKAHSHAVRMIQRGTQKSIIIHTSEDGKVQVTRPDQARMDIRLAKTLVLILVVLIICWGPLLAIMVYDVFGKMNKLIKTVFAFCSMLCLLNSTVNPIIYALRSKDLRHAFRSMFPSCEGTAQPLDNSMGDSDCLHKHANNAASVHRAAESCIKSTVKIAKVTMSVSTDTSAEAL
# Sequence of eeAChE (O42275 24-633): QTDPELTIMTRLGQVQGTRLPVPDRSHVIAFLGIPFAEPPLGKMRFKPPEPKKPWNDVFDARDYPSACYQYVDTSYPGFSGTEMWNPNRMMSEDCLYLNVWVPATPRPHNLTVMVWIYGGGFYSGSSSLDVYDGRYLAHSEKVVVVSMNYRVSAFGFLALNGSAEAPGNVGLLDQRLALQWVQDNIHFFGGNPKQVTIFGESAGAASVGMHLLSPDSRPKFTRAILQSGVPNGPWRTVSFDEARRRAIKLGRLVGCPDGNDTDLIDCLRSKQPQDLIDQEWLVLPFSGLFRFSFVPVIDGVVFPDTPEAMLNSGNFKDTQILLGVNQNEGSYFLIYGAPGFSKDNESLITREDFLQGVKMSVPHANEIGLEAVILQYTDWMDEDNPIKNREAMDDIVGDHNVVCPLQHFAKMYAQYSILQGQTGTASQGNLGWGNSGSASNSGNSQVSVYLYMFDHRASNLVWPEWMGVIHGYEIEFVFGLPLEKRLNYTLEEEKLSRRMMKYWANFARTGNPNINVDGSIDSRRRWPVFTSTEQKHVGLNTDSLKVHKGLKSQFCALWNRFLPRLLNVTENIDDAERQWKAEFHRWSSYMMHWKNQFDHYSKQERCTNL
# Sequence of hBChE (P06276 29-602): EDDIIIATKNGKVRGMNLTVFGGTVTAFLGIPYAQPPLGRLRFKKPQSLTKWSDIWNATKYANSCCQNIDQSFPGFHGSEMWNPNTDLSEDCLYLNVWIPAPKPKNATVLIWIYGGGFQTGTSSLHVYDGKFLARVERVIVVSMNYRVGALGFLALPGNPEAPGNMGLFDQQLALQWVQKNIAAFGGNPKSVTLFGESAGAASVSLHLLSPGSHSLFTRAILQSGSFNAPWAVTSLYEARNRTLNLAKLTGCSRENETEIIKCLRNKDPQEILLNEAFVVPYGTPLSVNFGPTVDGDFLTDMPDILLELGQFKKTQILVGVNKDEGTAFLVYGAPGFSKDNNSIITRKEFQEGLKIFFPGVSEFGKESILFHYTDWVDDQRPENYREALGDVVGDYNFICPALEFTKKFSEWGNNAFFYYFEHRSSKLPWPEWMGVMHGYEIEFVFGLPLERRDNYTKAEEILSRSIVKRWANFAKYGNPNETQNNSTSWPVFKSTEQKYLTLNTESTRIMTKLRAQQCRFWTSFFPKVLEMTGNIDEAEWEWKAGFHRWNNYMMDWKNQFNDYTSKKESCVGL
Compound,"[^3H]CP 55,940 displ. @10 µM hCB1R (hCB1R) [%]",IC50 (eeAChE; [1]) [nM],Ki (hCB2R) [nM],Ki (hCB2R; read-out: Ki hCB2R) [nM],affinity towards hCB2R (in words) (hCB2R),further results
"CCOc1ccc(Cc2nc3cc(C(=O)N(CC)CC)ccc3n2CCCNc2c3c(nc4ccccc24)CCCC3)cc1 [3b, 2-(4-Ethoxybenzyl)-N,N-diethyl-1-(3-((1,2,3,4-tetrahydroacridin-9-yl)amino)propyl)-1H-benzo[d]imidazole-5-carboxamide]",15,130,–,–,–,inhibitory potency towards hBChE compared to tacrine (hBChE; compared to tacrine): increased inhibitory potency
"CCOc1ccc(Cc2nc3cc(C(=O)N(CC)CC)ccc3n2CCCCNc2c3c(nc4ccccc24)CCCC3)cc1 [3c, 2-(4-ethoxybenzyl)-N,N-diethyl-1-(4-((1,2,3,4-tetrahydroacridin-9-yl)amino)butyl)-1H-benzo[d]imidazole-5-carboxamide]",32,157,25100,26900,–,–
"CCOc1ccc(Cc2nc3cc(C(=O)NCCCCCNc4c5c(nc6ccccc46)CCCC5)ccc3n2CCC(C)C)cc1 [4d, 2-(4-Ethoxybenzyl)-1-isopentyl-N-(5-((1,2,3,4-tetrahydroacridin-9-yl)amino)pentyl)-1H-benzo[d]imidazole-5-carboxamide]",15,52.7,–,4000,–,pIC50 ± SD hCB2R (in brackets after Ki) (hCB2R): 4.0 µM (5.4 ± 0.1)
"CCOc1ccc(Cc2nc3cc(C(=O)NCCCCCCNc4c5c(nc6ccccc46)CCCC5)ccc3n2CCC(C)C)cc1 [4e, 2-(4-Ethoxybenzyl)-1-isopentyl-N-(6-((1,2,3,4-tetrahydroacridin-9-yl)amino)hexyl)-1H-benzo[d]imidazole-5-carboxamide]",54,8.5,10000,9600,–,–
"Cc1c(C(=O)NN2CCCCC2)nn(-c2ccc(Cl)cc2Cl)c1-c1ccc(Cl)cc1 [Rimonabant, reference compound]",–,–,–,–,–,"[^3H]CP 55,940 displ. @10 µM hCB2R (hCB2R): 4%"
"CCOc1ccc(Cc2nc3cc(C(=O)N(CC)CCCCNc4c5c(nc6ccccc46)CCCC5)ccc3n2CCC(C)C)cc1 [compound 5, 2-(4-ethoxybenzyl)-N-ethyl-1-isopentyl-N-(4-((1,2,3,4-tetrahydroacridin-9-yl)amino)butyl)-1H-benzo[d]imidazole-5-carboxamide]",36,370,3160,3000,same affinity,"affinity towards hCB1R (in words) (hCB1R): higher affinity; pIC50 ± SD AChE (hAChE) (hAChE; hAChE recombinant expressed): 6.6 ± 0.1; IC50 (hAChE; hAChE recombinant expressed, read-out: IC50 AChE (hAChE)): 259 nM; SI (hBChE): 6.2; pIC50 ± SD hBChE (hBChE; hBChE from human serum): 7.2 ± 0.1; IC50 (hBChE; hBChE from human serum, means of at least three determinations, read-out: IC50 hBChE): 60 nM; selectivity hCB2R over hCB1R (in words) (hCB2R): low selectivity"
"CCOc1ccc(Cc2nc3cc(C(=O)N(CC)CC)ccc3n2CCOCCOCCNc2c3c(nc4ccccc24)CCCC3)cc1 [compound 6, 2-(4-Ethoxybenzyl)-N,N-diethyl-1-(2-(2-(2-((1,2,3,4-tetrahydroacridin-9-yl)amino)ethoxy)ethoxy)ethyl)-1H-benzo[d]imidazole-5-carboxamide]",11,–,31600,28700,weaker affinity,IC50 (hBChE): 90 nM; pIC50 ± SD hBChE (hBChE): 90 nM (7.0 ± 0.1); IC50 (eeAChE): 150 nM
"CCOc1ccc(Cc2nc3cc(C(=O)NCCOCCOCCNc4c5c(nc6ccccc46)CCCC5)ccc3n2CCC(C)C)cc1 [compound 7, 2-(4-Ethoxybenzyl)-1-isopentyl-N-(2-(2-(2-((1,2,3,4-tetrahydroacridin-9-yl)amino)ethoxy)ethoxy)ethyl)-1H-benzo[d]imidazole-5-carboxamide]",32,–,15800,17400,weaker affinity,IC50 (hAChE; IC50 AChE (hAChE)): 1360 nM; IC50 (hAChE; pIC50 ± SD AChE (hAChE)): 1400 nM; IC50 (eeAChE): 1030 nM
